Results on 1 molecule are retold here after EP4162935B1 (UNIVERSIDADE NOVA DE LISBOA, priority 2021, dated 2023).

In one data set the test system is SARS-CoV-2. In words: SARS-CoV-2 cell infection assay in Vero E6 cells, intracellular ATP levels (CellTiter-Glo) and cytopathic effect.
For data set [1] the following is noted: oral administration of a single dose of 300 mg/kg and 2000 mg/kg, 14 days of observation; cited from earlier work.

Consider `COc1ccc(-c2cc(=O)c3c(O)cc(O)cc3o2)cc1O` [diosmetin, 5,7-Dihydroxy-2-(3-hydroxy-4-methoxyphenyl)-4H-benzopyran-4-one], for which, in the data set with SARS-CoV-2 (45 µM), the “duration of antiviral effect” value was found to be 72 h. This molecule also showed an optimal concentration with SARS-CoV-2 (same as in µM, Vero E6 cells, 30 pfu SARS-CoV-2, 72h) of 13.5 µg/mL. In addition, the “signs of toxicity or mortality” value in data set [1] is recorded as “did not demonstrate any signs of toxicity or mortality”.
